Measurements: patent US11472791B2 (Incyte Corporation, priority 2019, dated 2022)

biological target: CDK2/Cyclin E1 (Homo sapiens (Human), UniProt P24941); experiment: CDK2/Cyclin E1 HTRF enzyme activity assay; type: biochemical; details: 1 mM ATP
Method: Assays are conducted in white 384-well polystyrene plates in a final reaction volume of 8 μL. […] HTRF signals are read after 1 hour at room temperature on a PHERAstar FS plate reader (BMG Labtech). Data is analyzed with IDBS XLFit and GraphPad Prism 5.0 software using a three or four parameter dose response curve to determine IC50 for each compound.

Row | IC50 | SMILES
1 | 500 to 1000 nM | CS(=O)(=O)N1CCCC(Nc2ncc(C(F)(F)F)c(-c3cnn(C4CCOCC4)c3)n2)C1 (racemic) [Example 19, (±)-N-(1-(Methylsulfonyl)piperidin-3-yl)-4-(1-(tetrahydro-2H-pyran-4-yl)-1H-pyrazol-4-yl)-5-(trifluoromethyl)pyrimidin-2-amine]
2 | < 50 nM | C[C@H]1C[C@H](Nc2ncc(C(F)(F)F)c(-c3cnn(C4CCOCC4)c3)n2)CCN1S(C)(=O)=O (racemic) [Example 21, (±)-N-((2S,4R)-2-Methyl-1-(methylsulfonyl)piperidin-4-yl)-4-(1-(tetrahydro-2H-pyran-4-yl)-1H-pyrazol-4-yl)-5-(trifluoromethyl)pyrimidin-2-amine]
3 | < 50 nM | CN1CCC(S(=O)(=O)N2CCC(Nc3ncc(C(F)(F)F)c(-c4cnn(CC(C)(C)O)c4)n3)CC2)C1 (racemic) [Example 86, (±)-2-Methyl-1-(4-(2-((1-((1-methylpyrrolidin-3-yl)sulfonyl)piperidin-4-yl)amino)-5-(trifluoromethyl)pyrimidin-4-yl)-1H-pyrazol-1-yl)propan-2-ol]
4 | < 50 nM | CC(O)(Cn1cc(-c2nc(NC3CCN(S(C)(=O)=O)CC3)ncc2C(F)(F)F)cn1)C(F)(F)F (racemic) [Example 95, (±)-1,1,1-Trifluoro-2-methyl-3-(4-(2-((1-(methylsulfonyl)piperidin-4-yl)amino)-5-(trifluoromethyl)pyrimidin-4-yl)-1H-pyrazol-1-yl) propan-2-ol]
5 | < 50 nM | CS(=O)(=O)N1CCC(Nc2ncc(C#N)c(-c3cnn(-c4ccc(CNC5CCN(S(C)(=O)=O)C5)cc4Cl)c3)n2)CC1 (racemic) [Example 198, (±)-4-(1-(2-Chloro-4-(((1-(methylsulfonyl)pyrrolidin-3-yl)amino)methyl)phenyl)-1H-pyrazol-4-yl)-2-((1-(methylsulfonyl)piperidin-4-yl)amino)pyrimidine-5-carbonitrile]
6 | < 50 nM | CCS(=O)(=O)N1CCC(Nc2ncc(C#N)c(-c3cnn(-c4ccc(CN[C@@H]5CCCC[C@@]5(C)O)cc4Cl)c3)n2)CC1 (racemic) [Example 287, (±)-4-(1-(2-Chloro-4-((((1r,2r)-2-hydroxy-2-methylcyclohexyl)amino)methyl)phenyl)-1H-pyrazol-4-yl)-2-((1-(ethylsulfonyl)piperidin-4-yl)amino)pyrimidine-5-carbonitrile]
7 | < 50 nM | CS(=O)(=O)N1CCC(Nc2ncc(C(F)(F)F)c(-c3cnn(C4CCOCC4)c3)n2)CC1 [Example 3, N-(1-(Methylsulfonyl)piperidin-4-yl)-4-(1-(tetrahydro-2H-pyran-4-yl)-1H-pyrazol-4-yl)-5-(trifluoromethyl)pyrimidin-2-amine]
8 | < 50 nM | N#CCS(=O)(=O)N1CCC(Nc2ncc(C(F)(F)F)c(-c3cnn(C4CCOCC4)c3)n2)CC1 [Example 4, 2-((4-((4-(1-(Tetrahydro-2H-pyran-4-yl)-1H-pyrazol-4-yl)-5-(trifluoromethyl)pyrimidin-2-yl)amino)piperidin-1-yl)sulfonyl)acetonitrile]
9 | < 50 nM | O=S(=O)(Cc1ccccc1)N1CCC(Nc2ncc(C(F)(F)F)c(-c3cnn(C4CCOCC4)c3)n2)CC1 [Example 5, N-(1-(Benzylsulfonyl)piperidin-4-yl)-4-(1-(tetrahydro-2H-pyran-4-yl)-1H-pyrazol-4-yl)-5-(trifluoromethyl)pyrimidin-2-amine]
10 | < 50 nM | O=S(=O)(C1CCOCC1)N1CCC(Nc2ncc(C(F)(F)F)c(-c3cnn(C4CCOCC4)c3)n2)CC1 [Example 6, 4-(1-(Tetrahydro-2H-pyran-4-yl)-1H-pyrazol-4-yl)-N-(1-((tetrahydro-2H-pyran-4-yl)sulfonyl)piperidin-4-yl)-5-(trifluoromethyl)pyrimidin-2-amine]

The remaining lines, values behind:

Row | SMILES | IC50
11 | CN(C)C1CCC(S(=O)(=O)N2CCC(Nc3ncc(C(F)(F)F)c(-c4cnn(CC(C)(C)O)c4)n3)CC2)CC1 (single isomer, unassigned) [88 (peak 1), 1-(4-(2-((1-((4-(Dimethylamino)cyclohexyl)sulfonyl)piperidin-4-yl)amino)-5-(trifluoromethyl)pyrimidin-4-yl)-1H-pyrazol-1-yl)-2-methylpropan-2-ol] | < 50 nM
12 | CN(C)C1CCC(S(=O)(=O)N2CCC(Nc3ncc(C(F)(F)F)c(-c4cnn(CC(C)(C)O)c4)n3)CC2)CC1 (single isomer, unassigned) [88 (peak 2), 1-(4-(2-((1-((4-(Dimethylamino)cyclohexyl)sulfonyl)piperidin-4-yl)amino)-5-(trifluoromethyl)pyrimidin-4-yl)-1H-pyrazol-1-yl)-2-methylpropan-2-ol] | < 50 nM
13 | CCN(CC)C1CCC(S(=O)(=O)N2CCC(Nc3ncc(C(F)(F)F)c(-c4cnn(CC(C)(C)O)c4)n3)CC2)CC1 (single isomer, unassigned) [89 (peak 1), 1-(4-(2-((1-((4-(Diethylamino)cyclohexyl)sulfonyl)piperidin-4-yl)amino)-5-(trifluoromethyl)pyrimidin-4-yl)-1H-pyrazol-1-yl)-2-methylpropan-2-ol] | < 50 nM
14 | CCN(CC)C1CCC(S(=O)(=O)N2CCC(Nc3ncc(C(F)(F)F)c(-c4cnn(CC(C)(C)O)c4)n3)CC2)CC1 (single isomer, unassigned) [89 (peak 2), 1-(4-(2-((1-((4-(Diethylamino)cyclohexyl)sulfonyl)piperidin-4-yl)amino)-5-(trifluoromethyl)pyrimidin-4-yl)-1H-pyrazol-1-yl)-2-methylpropan-2-ol] | < 50 nM
15 | CC(C)(O)Cn1cc(-c2nc(NC3CCN(S(=O)(=O)C4CCC(N5CCC5)CC4)CC3)ncc2C(F)(F)F)cn1 (single isomer, unassigned) [90 (peak 1), 1-(4-(2-((1-((4-(Azetidin-1-yl)cyclohexyl)sulfonyl)piperidin-4-yl)amino)-5-(trifluoromethyl)pyrimidin-4-yl)-1H-pyrazol-1-yl)-2-methylpropan-2-ol] | < 50 nM
16 | CC(C)(O)Cn1cc(-c2nc(NC3CCN(S(=O)(=O)C4CCC(N5CCC5)CC4)CC3)ncc2C(F)(F)F)cn1 (single isomer, unassigned) [90 (peak 2), 1-(4-(2-((1-((4-(Azetidin-1-yl)cyclohexyl)sulfonyl)piperidin-4-yl)amino)-5-(trifluoromethyl)pyrimidin-4-yl)-1H-pyrazol-1-yl)-2-methylpropan-2-ol] | < 50 nM
17 | CC(C)(O)Cn1cc(-c2nc(NC3CCN(S(=O)(=O)C4CCC(N5CCCC5)CC4)CC3)ncc2C(F)(F)F)cn1 (single isomer, unassigned) [91 (peak 1), 2-Methyl-1-(4-(2-((1-((4-(pyrrolidin-1-yl)cyclohexyl)sulfonyl)piperidin-4-yl)amino)-5-(trifluoromethyl)pyrimidin-4-yl)-1H-pyrazol-1-yl)propan-2-ol] | < 50 nM
18 | CC(C)(O)Cn1cc(-c2nc(NC3CCN(S(=O)(=O)C4CCC(N5CCCC5)CC4)CC3)ncc2C(F)(F)F)cn1 (single isomer, unassigned) [91 (peak 2), 2-Methyl-1-(4-(2-((1-((4-(pyrrolidin-1-yl)cyclohexyl)sulfonyl)piperidin-4-yl)amino)-5-(trifluoromethyl)pyrimidin-4-yl)-1H-pyrazol-1-yl)propan-2-ol] | < 50 nM
19 | O=S(=O)(c1cn[nH]c1)N1CCC(Nc2ncc(C(F)(F)F)c(-c3cnn(CC(F)(F)F)c3)n2)CC1 [Example 2, N-(1-((1H-Pyrazol-4-yl)sulfonyl)piperidin-4-yl)-4-(1-(2,2,2-trifluoroethyl)-1H-pyrazol-4-yl)-5-(trifluoromethyl)pyrimidin-2-amine] | < 50 nM
